According to publication PMC11467779, “New anti-ovarian cancer quinolone derivatives acting by modulating microRNA processing machinery” (RSC Medicinal Chemistry, 2024):
Entries after “also recorded” stand apart in the source; their conditions may differ.

What was measured:
hTopI = target: T1, hTopI (Homo sapiens, UniProt P11387); test: Detection of hTOP1 cleavage complexes (cleavage assay); format: cell-based; conditions: 100 μM
T1 construct: endogenous in cells
Description: After compound treatments, 1 × 10^6 human cells in 35 mm dish per sample were washed with 1× phosphate-buffered saline (PBS) and lysed with 600 μL of DNAzol (Invitrogen), followed by precipitation with 300 μL of 200 proof ethanol. The nucleic acids were collected, washed with 75% ethanol, resuspended in 200 μL of TE buffer, and then heated at 65 °C for 15 min, followed by shearing with sonication (40% output for 10 s pulse and 10 s rest for four times). The samples were centrifuged at 15 000 rpm for 5 min at 4 °C, and the supernatant were collected. 1 μL of each sample was removed for spectrophotometric measurement of absorbance at 260 nm to quantitate DNA content (NanoDrop). 2 μg of each sample was subjected to slot-blot for immunoblotting using anti-hTOP1 antibody (BD Pharmingen, 556597) and anti-hTOP2α antibody (Santa Cruz biotechnology, 365916).[51]

A549 (lung carcinoma) = test: Proliferation of A549 cells (trypan blue count); format: cell-based, human; conditions: 30 μM, 72 hours
Description: (§1) A2780 and SKOV-3 cells were treated with 50 μM of 33 for 72 h before RNA and protein extraction and expression analyses. A2780 and A2780 CIS were treated with 33 (30 μM) and/or cisplatin (1 μM, Sigma-Aldrich) for 48 hours while MCF-7, A549 and HCT-116 were treated with 33 (30 μM) for 72 hours. Total cell number and viability have been assessed using Trypan Blue Solution (Thermo Fisher Scientific) and Countess™ 3 Automated Cell Counter (Thermo Fisher Scientific).

A2780 cells = test: A2780 cell number, cell death and apoptosis markers (trypan blue, Western blot); format: cell-based, human
Excerpt: […] […] Total cell number and viability have been assessed using Trypan Blue Solution (Thermo Fisher Scientific) and Countess™ 3 Automated Cell Counter (Thermo Fisher Scientific).
Lysates were loaded on 4–12% bis–tris-acrylamide gel (Life Technologies) and transferred to a nitrocellulose membrane. The membrane was blocked in 5% milk and hybridized with α-TRBP (15753-1-AP Proteintech), α-GAPDH (sc-25778, Santa Cruz Biotechnology), α-c-PARP (Bioss Antibodies, BSM-52408R), α-BCLXL (mAb #2764, Cell Signaling Technology) and α-β-actin (A3854, Sigma) antibodies. All the images were captured using the ChemiDocTM Touch Imaging System (Bio-Rad), and the densitometric analyses were performed using the associated Image Lab software (Bio-Rad).

[1] = Cytotoxicity against non-tumor Wi-38 cells (CC50, cell count); format: cell-based; conditions: human, Wi-38 cells (non-tumor), 50% cytotoxicity concentration, 72 hours of treatment
Description: (§2) SKOV-3, A2780 and A2780 CIS were cultured and maintained, as previously described,[50] at 37 °C in RPMI 1640 medium (Euroclone) supplemented with 10% fetal bovine serum (FBS; Euroclone), L-glutamine and penicillin/streptomycin (SIGMA-ALDRICH). OVCA433, HEK-293T, HeLa, HCCLM3, SK-Hep-1, MCF-7, A549 and HCT-116 cells were maintained in DMEM medium (Euroclone) containing 10% FBS (Euroclone), L-glutamine and penicillin/streptomycin (SIGMA-ALDRICH). Wi-38 cells were cultured in DMEM medium (Euroclone) supplemented with 10% FBS (Euroclone), L-glutamine and penicillin/streptomycin (SIGMA-ALDRICH), and 1% non-essential amino acids (NEAA; Euroclone). The cultures were maintained in a constant temperature incubator at 37 °C with 5% CO2. […] Once cell adhesion had been promoted, the compounds were added to the culture medium. After 72 hours of treatment, the cells were counted, and the data analyzed by linear regression. Each experiment was carried out three times in triplicate and three separate cell counts were made for each sample. […] Afterwards, the concentration range was narrowed to the relative value obtained in the first evaluation in order to obtain an accurate value.

[2] = test system: cisplatin-resistant A2780 cells (A2780 CIS); test: Viable cells of cisplatin-resistant A2780 (A2780 CIS) treated with 33, cisplatin or both; format: cell-based, human; conditions: 48 hours
Description: as §1

OVCA433 = test: Antiproliferative effect against OVCA433 (GI50); format: cell-based; conditions: Homo sapiens, 72 hours of treatment, cell count
Description: as §2

A2780 = test: Antiproliferative effect against A2780 (GI50); format: cell-based; conditions: Homo sapiens, 72 hours of treatment, cell count
Description: as §2

miR-21 = miR-21 expression in HeLa cells (qRT-PCR); format: cell-based, human; conditions: 50 μM, 6 hours
Description: Total RNA was extracted using the Direct-zol RNA MiniPrep kit (Zymo Research) with on-column DNase treatment, according to the manufacturer's instructions. Reverse transcription was carried out with SuperScript VILO cDNA Synthesis Kit (Life Technologies) and the cDNA samples were analyzed by qRT-PCR using PowerUp SYBR Green Master Mix (Thermo Fisher Scientific). For miR-21 expression analysis total RNA was retrotranscribed using miRCURY® LNA® RT Kit (Qiagen) and the cDNA was analyzed by using miRCURY® LNA® miRNA PCR Assay (Qiagen). The oligonucleotides used are the following: GAPDH_FW […]; GAPDH_REV […]; ATP5O_FW […]; ATP5O_REV […]; hsa-miR-21-5p miRCURY LNA miRNA PCR Assay (YP00204230); U6 snRNA (v2) miRCURY LNA miRNA PCR Assay (YP02119464).

KO TRBP HCCLM3 cells = test: Antiproliferative effect on KO TRBP HCCLM3 cells (CCK-8); format: cell-based, human; conditions: 30 μM, 48 hours
Description: HCCLM3 and SK-Hep-1 cells were seeded into 96-well plates at a density of 10 000 cells per well and allowed to adhere overnight. Subsequently, the cells were treated with the following substances: 0.1% DMSO as the negative control, various concentrations of the test compounds, and 125 μM enoxacin as the positive control. After 48 h of incubation, the original culture medium was removed, and the cells were washed twice with PBS. Then, 100 μL of DMEM culture medium containing 10% CCK-8 (Bimake, USA) was added to each well. The plates were incubated for 30 minutes at 37 °C. To determine the […], measurements were taken at a wavelength of 450 nm using a Varioskan from Thermo Fisher Scientific.

distinct OC cell lines = test: Anti-OC activity against distinct cell lines (GI50 range); format: cell-based; conditions: Homo sapiens; range over the OC cell lines tested
Description: Once cell adhesion had been promoted, the compounds were added to the culture medium. After 72 hours of treatment, the cells were counted, and the data analyzed by linear regression. Each experiment was carried out three times in triplicate and three separate cell counts were made for each sample.
Afterwards, the concentration range was narrowed to the relative value obtained in the first evaluation in order to obtain an accurate value.

SKOV-3 cells = test: SKOV-3 cell number, cell death and apoptosis markers (trypan blue, Western blot); format: cell-based, human; conditions: 30 μM, 72 hours

T1 sequence (P11387 whole entry): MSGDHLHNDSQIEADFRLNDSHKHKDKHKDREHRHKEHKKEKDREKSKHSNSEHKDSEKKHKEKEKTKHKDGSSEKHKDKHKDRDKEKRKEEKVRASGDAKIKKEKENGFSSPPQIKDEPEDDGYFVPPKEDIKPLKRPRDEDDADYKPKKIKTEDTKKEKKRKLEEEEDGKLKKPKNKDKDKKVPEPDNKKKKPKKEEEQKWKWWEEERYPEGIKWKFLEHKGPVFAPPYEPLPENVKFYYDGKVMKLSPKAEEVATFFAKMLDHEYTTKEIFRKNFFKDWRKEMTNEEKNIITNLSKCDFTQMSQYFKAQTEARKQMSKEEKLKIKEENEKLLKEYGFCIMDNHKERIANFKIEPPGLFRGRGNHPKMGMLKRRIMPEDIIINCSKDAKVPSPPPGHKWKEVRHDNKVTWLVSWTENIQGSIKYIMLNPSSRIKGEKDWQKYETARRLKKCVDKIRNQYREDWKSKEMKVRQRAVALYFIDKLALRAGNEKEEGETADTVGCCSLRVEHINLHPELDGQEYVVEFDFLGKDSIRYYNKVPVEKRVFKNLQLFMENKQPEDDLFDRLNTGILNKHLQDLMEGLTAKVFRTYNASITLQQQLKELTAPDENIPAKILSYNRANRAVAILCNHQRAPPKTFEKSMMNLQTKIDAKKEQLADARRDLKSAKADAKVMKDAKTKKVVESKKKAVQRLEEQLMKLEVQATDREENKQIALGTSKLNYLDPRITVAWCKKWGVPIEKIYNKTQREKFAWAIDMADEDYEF

trapping/inhibition of hTopI (cleavage assay) (hTopI): no inhibition or trapping activity
GI50 (A2780): 18.1 ± 8.25 µM
SMILES: O=C(O)c1cn(C2CC2)c2cc(N3CCc4ccccc4C3)c(F)cc2c1=O [Compound 33, 1-Cyclopropyl-7-(3,4-dihydroisoquinolin-2(1H)-yl)-6-fluoro-4-oxo-1,4-dihydroquinoline-3-carboxylic acid]
effect on A549 cell proliferation (A549 (lung carcinoma)): significant inhibitory effect on cell proliferation
Bcl-XL protein in A2780 cells (A2780 cells; 30 μM, 72 hours, Western blot): downregulation
cleaved PARP1 (c-PARP) levels in A2780 cells (A2780 cells; 30 μM, 72 hours, Western blot): increased levels of cleaved PARP1
percentage of dead A2780 cells (A2780 cells; 30 μM, 72 hours, trypan blue): increased to a great extent
total number of A2780 cells (A2780 cells; 30 μM, 72 hours, trypan blue): greatly reduced
effect of 33 in combination with cisplatin on A2780 proliferation (A2780 cells; 33 30 μM + cisplatin 1 μM, 48 hours): more pronounced inhibitory effect on A2780 proliferation
CC50 at 72 h [1]: 143 ± 42.7 µM
sensitivity of A2780 CIS and A2780 to 33 alone ([2]; 30 μM): equal sensitivity
effect of 33 in combination with cisplatin on A2780 CIS ([2]; 33 30 μM + cisplatin 1 μM): synergistic effect; also recorded: sensitized A2780 CIS to cisplatin
GI50 (OVCA433): 31 ± 6.75 µM
miR-21 level in HeLa cells (miR-21): Upregulation of miR-21
antiproliferative effect on KO TRBP HCCLM3 cells (KO TRBP HCCLM3 cells): no antiproliferative effect
GI50 (distinct OC cell lines): 13.5 to 31 µM
c-PARP and Bcl-XL in SKOV-3 cells (SKOV-3 cells; Western blot): No changes
total number of SKOV-3 cells (SKOV-3 cells; trypan blue): greatly reduced
